Test results as given in EP0844879B1, “PHARMACEUTICAL CO[…] D[…] IN […] IMMUNE RESPONSE” (LA[…] SPINDLER, priority 1995, dated 1996).
Entries after “also recorded” stand apart in the source; their conditions may differ.

System: vaccin monovalent de la grippe (vaccin NIB16, souche A) (HA)
Test: Immunisation of mice with monovalent influenza vaccine, steroid as adjuvant; total anti-HA IgG in serum by enzyme immunoassay
Format: in vivo, souris BALB/C
Details: aged mice compared with young mice; steroid given with HA
Experimental: Un protocole d'immunisation contre le vaccin monovalent de la grippe (vaccin NIB16, souche A) (HA), est utilisé pour tester l'effet adjuvant du dérivé 3β-palmitoyl de la 7αOH-DHEA mis en solution à 10 mg/ml dans le DMSO.
Trois lots de 5 souris BALB/C âgées de 6 semaines (jeunes) et trois lots de 5 souris BALB/C âgées de 90 semaines (âgées) subissent le premier jour une injection sous-cutanée de 0,5 ml de sérum physiologique contenant : • soit 8 µg de HA + 1,8 µmole (0,78 mg/kg) de 3β-palmitoyl-7αOH-DHEA (lot 1) • soit 8 µg de HA + 1,8 µmole (0,56 mg/kg) de 7αOH-DHEA (lot 2) • soit 8 µg de HA (lot 3) Après 28 jours, chaque souris de chaque lot subit un rappel, les injections décrites étant répétées pour chaque lot. Après 38 jours, chaque souris de chaque lot est sacrifiée et le sang prélevé. Les IgG totales anti-HA sont mesurées dans chaque sérum par une méthode immunoenzymatique. […] Tableau 1

| SMILES | réponse immunitaire des souris âgées (result in words) |
| --- | --- |
| CCCCCCCCCCCCCCCC(=O)O[C@H]1CC[C@@]2(C)C(=C[C@@H](O)[C@@H]3[C@@H]2CC[C@]2(C)C(=O)CC[C@@H]32)C1 [3β-palmitoyl-7αOH-DHEA] | rétablit la réponse immunitaire des souris âgées à un niveau proche de celui des souris jeunes; also recorded: a un effet sur la réponse immunitaire des souris âgées comparable à celui obtenu chez les souris jeunes |
| C[C@]12CC[C@H](O)CC1=C[C@@H](O)[C@@H]1[C@@H]2CC[C@]2(C)C(=O)CC[C@@H]12 [7αOH-DHEA, reference compound] | cette réponse n'est pas obtenue |
